According to US8673907B2, “Pharmaceutically acceptable salts of methyl (3-{ [[3-(6-amino- 2-butoxy-8-oxo-7,8-dihydro-9H-purin-9-yl) propyl] (3-morpholin-4-ylpropyl) amino] methyl }phenyl) acetate and their use in therapy” (AstraZeneca AB, priority 2007, dated 2014):

Assays:
Format in all cases: physicochemical
[1] = Particle size reduction (micronisation) in 2" Spiral Jet Mill; details: for Yield (micronisation): constant flow feed, venturi 5 bar, grind 1-2 bar
Procedure: Particle size reduction using a 2″ Spiral Jet Mill (SJM) was carried out on the following three test substances: the monohydrochloride salt according to Example 1 (invention salt), the dimaleate salt according to Example 3 (invention salt) and the free base compound, methyl (3-{[[3-(6-amino-2-butoxy-8-oxo-7,8-dihydro-9H-purin-9-yl)propyl](3-morpholin-4-ylpropyl)amino]methyl}phenyl)acetate (comparison compound).
A sieved batch of test substance was fed into the jet mill chamber, via a venturi feed system, by a vibratory feeder. Micronisation was achieved by particle collisions brought about by compressed gas (nitrogen) forced through angled nozzles in the jet mill chamber. Particles of different sizes develop different speeds and momentum and as the particle size is reduced the particles spiral towards the centre of the jet mill and exit via an exhaust into a collection bin. The process parameters that control the particle size, in addition to the inherent properties of the compound to be micronised, are the feed rate, grinding pressure and venturi pressure and these are summarised in Table I following.

[2] = Particle size measurement by laser diffraction (Malvern Scirocco) after micronisation; details: after jet milling; pressure 4 bar (comparison) or 1.5 bar (salts)
Procedure: Particle size reduction (micronisation) was performed in a jet mill in which pressurised gas was used to make the substance particles collide at high speed in order to effect particle size reduction. Particle size measurements were performed with laser diffraction using a Malvern Scirocco instrument.

[3] = Measurement of fine particle fraction (FPF) with Next Generation Impactor and HPLC; details: for Delivered amount: 60 liters/min for 2 seconds; for FPF (% < 5 μm/delivered dose), Average over NGI's: average of NGI1 and NGI2
Procedure: Measurement of FPF, starting from substance as received, was carried out according to the following series of steps:
Doses of 1-2 mg were weighed manually (without scraping) into the cavities of a prototype inhaler (see below). Two experiments were run for each test substance and two doses were used in each experiment and, thus, in total, four doses of each test substance were used in the experiments. The samples were dried in nitrogen gas atmosphere overnight before conducting the experiments.
The Next Generation Impactor, NGI, was used for the fine particle assessment. […] Two NGI impactors were used, one per experiment.
A simple prototype inhaler was used for the tests, consisting of an L-shaped cylindrical channel, comprising a vertical component and a horizontal component. The prototype inhaler was fitted via an USP-inlet to the NGI impactor. The micronised powder was transferred through the vertical channel into the bend of the prototype inhaler, (i.e. the bend of the L-shaped channel).
Each dose of 1-2 mg of powder was drawn with an airflow of 60 liters/min for 2 seconds (measured at the entrance of the induction port), entraining the powder located in the bend, and the aerosol thereafter moved through the horizontal component of the channel, through a spiral mouthpiece and into the NGI impactor.
The withdrawal and collection of the drug powders was performed in an isolator (glove) box with a relative humidity level below 2%.
The FPF's, as defined in the pharmacopoeia references above, were calculated.

Structure (SMILES)	Micronisation behaviour (build-up/blocking of mill) [1]	Yield (micronisation) [1]	d(0.1) [2]	d(0.5) [2]	d(0.9) [2]	Amount particles < 5 μm, extrapolated ([3]; NGI1)	Collected in stage 3-8 (<4.5 μm) ([3]; NGI1)	FPF (% < 5 μm/delivered dose) ([3]; NGI1)	Delivered amount ([3]; NGI1)	Amount particles < 5 μm, extrapolated ([3]; NGI2)	Collected in stage 3-8 (<4.5 μm) ([3]; NGI2)	FPF (% < 5 μm/delivered dose) ([3]; NGI2)	Delivered amount ([3]; NGI2)	FPF (% < 5 μm/delivered dose), Average over NGI's [3]
CCCCOc1nc(N)c2[nH]c(=O)n(CCCN(CCCN3CCOCC3)Cc3cccc(CC(=O)OC)c3)c2n1.O=C(O)/C=C\C(=O)O.O=C(O)/C=C\C(=O)O [Dimaleate salt, methyl (3-{[[3-(6-amino-2-butoxy-8-oxo-7,8-dihydro-9H-purin-9-yl)propyl](3-morpholin-4-ylpropyl)amino]methyl}phenyl)acetate dimaleate]	readily micronised	48%												
CCCCOc1nc(N)c2[nH]c(=O)n(CCCN(CCCN3CCOCC3)Cc3cccc(CC(=O)OC)c3)c2n1 [Comparison compound, methyl (3-{[[3-(6-amino-2-butoxy-8-oxo-7,8-dihydro-9H-purin-9-yl)propyl](3-morpholin-4-ylpropyl)amino]methyl}phenyl)acetate, reference compound]	the mill became plugged	1.7%	0.6 μm	1.7 μm	4.1 μm	139 µg	131 µg	19.3%	720 µg	189 µg	178 µg	13.6%	1396 µg	16.4%
Br.CCCCOc1nc(N)c2[nH]c(=O)n(CCCN(CCCN3CCOCC3)Cc3cccc(CC(=O)OC)c3)c2n1 [Monohydrobromide, methyl (3-{[[3-(6-amino-2-butoxy-8-oxo-7,8-dihydro-9H-purin-9-yl)propyl](3-morpholin-4-ylpropyl)amino]methyl}phenyl)acetate monohydrobromide]			0.8 μm	1.9 μm	4.1 μm	332 µg	319 µg	29.6%	1123 µg	427 µg	414 µg	43.8%	975 µg	36.7%
CCCCOc1nc(N)c2[nH]c(=O)n(CCCN(CCCN3CCOCC3)Cc3cccc(CC(=O)OC)c3)c2n1.Cl [Monohydrochloride, methyl (3-{[[3-(6-amino-2-butoxy-8-oxo-7,8-dihydro-9H-purin-9-yl)propyl](3-morpholin-4-ylpropyl)amino]methyl}phenyl)acetate monohydrochloride]	readily micronised	85%	0.9 μm	1.8 μm	3.5 μm	393 µg	383 µg	31.3%	1257 µg	402 µg	392 µg	40.6%	992 µg	35.9%
